The values that follow come from patent publication US20130072523A1, “ANALOGUES FOR THE TREATMENT OR PREVENTION OF FLAVIVIRUS INFECTIONS” (VERTEX PHARMACEUTICALS INCORPORATED, priority 2009, published 2013).

Assay [1] relates to sub-genomic HCV replicon of genotype 1a. Briefly: Activity determination using the ELISA and the sub-genomic replicon 1a cell line (NS5A protein level, W11.8 cells). Particulars: Hepatitis C virus, W11.8, 96 h, drug treatment for four days. The class given is cell-based. The source says:
Activity Determination Using the ELISA and the Sub-Genomic Replicon 1a Cell Line
The cell line W11.8 containing the sub-genomic HCV replicon of genotype 1a is used to determine the potency of the drugs. The RNA replication in presence of different drug concentrations is indirectly measured in this cell line by the level of NS5A protein content upon drug treatment for four days. It is shown that the level of the NS5A protein correlates well with the level of HCV RNA in the replicon cell line. Cells are split twice a week in order to keep the confluence state below 85% of the culture flask surface area. The culture media used for cell passaging consists of DMEM-10% foetal bovine serum with 100 UI/mL penicillin, 100 μg/mL streptomycin, 2 mM glutamine, 1 mM sodium pyruvate, non-essential amino acids (1×) and 600 μg/mL of G418 final concentrations. Monolayer of the W11.8 cells is trypsinized and cells are counted. Cells are diluted at 50,000 cells/mL with complete DMEM without G418, then approximately 5,000 viable cells (100 μL) are plated per well in a white opaque 96-well microtiter plate. After an incubation period of 2-4 hours at 37° C. in a 5% CO2 incubator, compounds are added at various concentrations. Drugs are resuspended in DMSO at a stock concentration of 10 mM. Then, drugs are serially diluted at twice the final concentration in the same medium. One volume (100 μL) of each drug dilution is then added to each well that contains cells.
A control compound is used as an internal standard for each plate assay. Sixteen wells are used as control (0% inhibition) without drug. […] Values from 100% inhibited wells were averaged and used as the background value. Cells are further incubated for four days at 37° C. in a 5% CO2 incubator. Following the incubation time of four days, the media is removed and wells are washed once with 150 μL of PBS at room temperature for five minutes. Cells are then fixed for five minutes using 150 μL per well of cold (−20° C.) fixative solution (50% methanol/50% acetone mix). Cells are then washed twice with 150 μL of PBS (phosphate buffered saline) per well, following the addition of 150 μL of blocking solution, cells are incubated for one hour at 37° C. to block non-specific sites. The blocking solution is removed and cells are washed twice with 150 μL of PBS per well and once with 150 μL of PBSTS solution (PBS/0.1% Triton X-100/0.02% SDS) per well. Then, 50 μL of mouse monoclonal anti-NS5A antibody (Santa Cruz, Cat. No. sc-52417) is added in each well, diluted 1/1,000 in the blocking solution and incubated at 4° C. overnight. Next day, media is removed and plates are washed five times with 150 μL of PBS per well with five-minute incubations at room temperature. Then 50 μL per well of peroxidase-conjugated donkey anti-mouse antibody (Jackson Immunoresearch, Cat. No. 715-036-150) diluted 1/10,000 in the blocking solution is added and incubated at room temperature for three hours on a shaker (500 rpm). Plates are washed four times with 150 μL of PBSTS solution per well and once with 150 μL of PBS. Then, substrate solution (100 μl, SuperSignal ELISA Pico Chemiluminescent Substrate, Fisher Cat. No. 37069) is added in each well and plates are incubated 60 minutes at room temperature prior to reading the luminescence (relative light units) on the Analyst HT plate reader. The percentage of inhibition at each drug concentration tested (in duplicate) is calculated. […]
For orientation: An ELISA detects its analyte on a solid surface through an enzyme-linked reagent.

Another assay concerns HCV 1b genotype. Briefly: Cell-based luciferase reporter HCV (Ib) RNA replication assay (Huh-ET replicon cells). Particulars: Hepatitis C virus, 96 h; HCV 1b genotype replicon, 4 days incubation, luciferase readout. The source says: Cell-Based Luciferase Reporter HCV (Ib) RNA Replication Assay Cell Culture
Replicon cell lines Huh-5.2 are derived from the Huh-7 hepatocarcinoma cell line are maintained in culture as generally described in Krieger, N; Lohmann, V; Bartenschlager, R. Enhancement of hepatitis C virus RNA replication by cell culture-adaptive mutations. J. Virol. 2001, 75, 4614-4624. The Huh-5.2 cells contain the highly cell culture-adapted replicon I389 Luc-ubi-neo/NS3-375.1 construct that carries, in addition to the neomycin gene, an integrated copy to the firefly luciferase gene (Krieger, N; Lohmann, V; Bartenschlager, R. Enhancement of hepatitis C virus RNA replication by cell culture-adaptive mutations. J. Virol. 2001, 75, 4614-4624). This cell line allows measurement of HCV RNA replication and translation by measuring luciferase activity. It has been previously shown that the luciferase activity tightly follows the replicon RNA level in these cells (Krieger, N; Lohmann, V; Bartenschlager, R. Enhancement of hepatitis C virus RNA replication by cell culture-adaptive mutations. J. Virol. 2001, 75, 4614-4624). The Huh-ET cell line has the same features as those mentioned for Huh-5.2 cell line, except that ET cells are more robust and contain an adaptative mutation in the HCV NS4B gene instead of NS5A. Both cell lines are maintained in cultures at a sub-confluent level (<85%) as the level of replicon RNA is highest in actively proliferating cells. The culture media used for cell passaging consist of DMEM (Gibco BRL Laboratories, Mississauga, ON, Canada) supplemented with 10% foetal bovine serum with 1% penicilin/streptomycin, 1% glutamine, 1% sodium pyruvate, 1% non-essential amino acids, and 180 μg/ml of G418 final concentration. Cells are incubated at 37° C., in an atmosphere of 5% CO2 and passaged twice a week to maintain sub-confluence.
Approximately 3000 viable Huh-ET cells (100 μl) are plated per well in a white opaque 96-well microtiter plate. The cell culture media used for the assay is the same as described above except that it contains no G418 and no phenol red. After an incubation period of 3-4 hours at 37° C. in a 5% CO2 incubator, compounds (100 μl) are added at various concentrations. Cells are then further incubated for 4 days at 37° C. in a 5% CO2 incubator. Thereafter, the culture media is removed and cells are lysed by the addition of 95 μL of the luciferase buffer (luciferin substrate in buffered detergent). Cell lysates are incubated at room temperature and protected from direct light for at least 10 minutes. Plates are read for luciferase counts using a luminometer (Wallac MicroBeta Trilux, Perkin Elmer™, MA, USA).
The 50% inhibitory concentrations (IC50s) for inhibitory effect are determined from dose response curves using eleven concentrations per compound in duplicate. Curves are fitted to data points using nonlinear regression analysis, and IC50s are interpolated from the resulting curve using GraphPad Prism software, version 2.0 (GraphPad Software Inc., San Diego, Calif., USA).
EC50 ranges are presented in micromolar as follows: μM+++<=0.005<++<=5.0<+.
(In general: In a reporter assay the amount or activity of a reporter protein is the signal.)

As a reminder, the IC50 is the concentration that inhibits the measured activity by half. The low end stands for inhibition by little substance, the high end for a need for much substance. Consider `COC(=O)N[C@H](C(=O)N1CCC[C@H]1c1ncc(C#Cc2ccc(C#Cc3cnc([C@@H]4CCCN4C(=O)[C@@H](NC(=O)OC)C(C)C)[nH]3)cc2)[nH]1)C(C)C`, for which, in assay [1], the IC50 is 4800 pM. Consider `COC(=O)N[C@H](C(=O)N1CCC[C@H]1c1ncc(-c2ccc(-c3ccc(-c4cnc([C@@H]5CCCN5C(=O)[C@@H](NC(=O)OC)C(C)C)[nH]4)cc3)cc2)[nH]1)C(C)C`, for which the IC50 in assay [1] is 50 pM.

For `COC(=O)N[C@H](C(=O)N1C[C@@H](C)C[C@H]1c1ncc(-c2ccc(-c3ccc(-c4cnc([C@@H]5C[C@H](C)CN5C(=O)[C@@H](NC(=O)OC)C(C)C)[nH]4)cc3)cc2)[nH]1)C(C)C` [Compound 1], the IC50 in assay [1] is 17 pM; in the assay on HCV 1b genotype, at most 5000 pM. For `COC(=O)N[C@H](C(=O)N1C[C@@H](C)C[C@H]1c1ncc(C#Cc2ccc(C#Cc3cnc([C@@H]4C[C@H](C)CN4C(=O)[C@@H](NC(=O)OC)C(C)C)[nH]3)cc2)[nH]1)C(C)C` [Compound 4] the same measures were 55 pM and at most 5000 pM.

In assay [1], `COC(=O)N[C@H](C(=O)N1[C@@H](C)CC[C@H]1c1ncc(C#Cc2ccc(C#Cc3cnc([C@@H]4CC[C@H](C)N4C(=O)[C@@H](NC(=O)OC)C(C)C)[nH]3)cc2)[nH]1)C(C)C` [drawing 272] displayed an IC50 of 240 pM.
